Reference: patent US20230310634A1, “ANTI-HUMAN VISTA ANTIBODIES AND USE THEREOF” (IMMUNEXT, INC., priority 2020, published 2023)
Entries after “also recorded” stand apart in the source; their conditions may differ.

Tests used:
[1] = tested on: LPS-induced cytokine release; assay: LPS-induced systemic inflammation, plasma cytokines post LPS; design: species or system mice; conditions: mouse, in vivo
Protocol: In order to evaluate the ADC potential efficacy in auto-immune diseases, we used the short-term model of LPS-induced systemic inflammation. Intraperitoneal (i.p.) injection of lipopolysaccharide (LPS) is widely used as a model for acute immune response—both local and systemic—in mice.
Blood was collected at 2 or 4 h post LPS i.p. injection, and plasma isolated for cytokine analyses.
Mice were dosed at 0.5 mg/Kg.
For ADC-INVIVO-30 and 35, the Immune Monitoring Lab (IML, Shared Resources at Dartmouth-Hitchcock Norris Cotton Cancer Center) performed the analyses.
ELISAs were conducted following the manufacturer's included protocol.
Cytokine data are censored when below a […] threshold for IL-12p40 and/or […] threshold for TNF-α as it indicates a failed LPS injection.

[2] = tested on: peritoneal resident macrophages; assay: In vivo treatment / ex vivo activation of peritoneal resident macrophages (TNFα, IL-6); design: species or system mice; conditions: Experiment 9, 0.2 mg/Kg of GC payload, day −7, supernatants at 24 h
[3] = tested on: LPS stimulated human PBMCs; assay: In vitro potency of steroid payloads in LPS stimulated human PBMCs (IL-1β, IL-6 ELISA); type: cell-based; conditions: for impact of halogenation of the steroid ring on potency: Experiment 6, 1000-0.16 nM, compared with INX-SM-3

Row | SMILES | potency of conjugated linker/payload in the short term LPS activation model (conclusions) [1] | long term potency in controlling PRM cytokine responses (TNFα, IL-6) [2] | steroid potency as free payloads in LPS-activated human PBMCS (conclusions) [3] | other results
1 | C[C@]12C=CC(=O)C=C1CC[C@@H]1[C@@H]2[C@@H](O)C[C@@]2(C)[C@H]1C[C@H]1O[C@@H](c3ccc(CC45CC(NC(=O)[C@H](CCC(=O)O)NC(=O)CNC(=O)CBr)(C4)C5)cc3)O[C@]12C(=O)CO [INX P, (S)-4-(2-(2-bromoacetamido)acetamido)-5-((3-(4-((6aR,6bS,7S,8aS,8bS,10R,11 aR,12aS,12bS)-7-hydroxy-8b-(2-hydroxyacetyl)-6a,8a-dimethyl-4-oxo-2,4,6a,6b,7,8,8a,8b,11a,12,12a,12b-dodecahydro-1H-naphtho[2′,1′:4,5]indeno[1,2-d][1,3]dioxol-10-yl)benzyl)bicycle[1.1.1]pentan-1-yl)amino)-5-oxopentanoic acid] | more potent |  |  | 
2 | C[C@H](NC(=O)CBr)C(=O)N[C@@H](C)C(=O)NC12CC(Cc3ccc([C@@H]4O[C@@H]5C[C@H]6[C@@H]7CCC8=CC(=O)C=C[C@]8(C)[C@H]7[C@@H](O)C[C@]6(C)[C@]5(C(=O)CO)O4)cc3)(C1)C2 [INX R, (S)-2-(2-bromoacetamido)-N—((S)-1-((3-(4-((6aR,6bS,7S,8aS,8bS,10R,11aR, 12aS,12bS)-7-hydroxy-8b-(2-hydroxyacetyl)-6a,8a-dimethyl-4-oxo-2,4,6a,6b,7,8,8a,8b,11a,12,12a,12b-dodecahydro-1H-naphtho[2′,1′:4,5]indeno[1,2-d][1,3]dioxol-10-yl)benzyl)bicyclo [1.1.1]pentan-1-yl)amino)-1-oxopropan-2-yl)propanamide] | efficacious |  |  | 
3 | C[C@]12C=CC(=O)C=C1CC[C@@H]1[C@@H]2[C@@H](O)C[C@@]2(C)[C@H]1C[C@H]1O[C@@H](C34CC(Cc5cccc(NC(=O)[C@H](CCC(=O)O)NC(=O)CNC(=O)CBr)c5)(C3)C4)O[C@]12C(=O)CO [INX O, (S)-4-(2-(2-bromoacetamido)acetamido)-5-((3-((3-((6aR,6bS,7S,8aS,8bS,10R,11aR,12aS,12bS)-7-hydroxy-8b-(2-hydroxyacetyl)-6a,8a-dimethyl-4-oxo-2,4,6a,6b,7,8,8a,8b,11a,12,12a,12b-dodecahydro-1H-naphtho[2′,1′:4,5]indeno[1,2-d][1,3]dioxol-10-yl)bicyclo[1.1.1]pentan-1-yl)methyl)phenyl)amino)-5-oxopentanoic acid] | reduced potency | little and non-significant impact; also recorded: very limited potency |  | 
4 | C[C@]12C=CC(=O)C=C1CC[C@@H]1[C@@H]2[C@@H](O)C[C@@]2(C)[C@H]1C[C@H]1O[C@@H](c3ccc(CC45CC(NC(=O)[C@H](CCCCN)NC(=O)CNC(=O)CBr)(C4)C5)cc3)O[C@]12C(=O)CO [INX W, (S)-6-amino-2-(2-(2-bromoacetamido)acetamido)-N-(3-(4-((6aR,6bS,7S,8aS,8bS,10R,11aR,12aS,12bS)-7-hydroxy-8b-(2-hydroxyacetyl)-6a,8a-dimethyl-4-oxo-2,4,6a,6b,7,8,8a,8b,11a,12,12a,12b-dodecahydro-1H-naphtho[2′,1′:4,5]indeno[1,2-d][1,3]dioxol-10-yl)benzyl)bicycle [1.1.1]pentan-1-yl)hexanamide] | efficacious | remarkable long term potency; also recorded: increased potency relative to INX P and INX R |  | 
5 | CC12C=CC(=O)C=C1CCC1C2C(O)CC2(C)C1CC1OC(c3ccc(Cc4cnc(NC(=O)C(CCC(=O)O)NC(=O)CNC(=O)CBr)s4)cc3)OC12C(=O)CO [INX N, (S)-4-(2-(2-bromoacetamido)acetamido)-5-((5-(4-((6aR,6bS,7S,8aS,8bS,10R,11aR,12aS,12bS)-7-hydroxy-8b-(2-hydroxyacetyl)-6a,8a-dimethyl-4-oxo-2,4,6a,6b,7,8,8a,8b,11a,12,12a,12b-dodecahydro-1H-naphtho[2′,1′:4,5]indeno[1,2-d][1,3]dioxol-10-yl)benzyl)thiazol-2-yl)amino)-5-oxopentanoic acid] | no potency |  |  | 
6 | C[C@]12C=CC(=O)C=C1CC[C@@H]1[C@@H]2[C@@H](O)C[C@@]2(C)[C@H]1C[C@H]1OC(c3ccc(CC4(N)CC(F)(F)C4)cc3)O[C@]12C(=O)CO (stereo partly drawn) [INX-SM-35, (6aR,6bS,7S,8aS,8bS,10R,11aR,12aS,12bS)-10-(4-((1-amino-3,3-difluorocyclobutyl)methyl)phenyl)-7-hydroxy-8b-(2-hydroxyacetyl)-6a,8a-dimethyl 1,2,6a,6b,7,8,8a,8b,11a,12,12a,12b-dodecahydro-4H-naphtho[2′,1′:4,5]indeno[1,2-d][1,3]dioxol-4-one] |  |  | varying degrees of dose dependent steroid potency | IL-1β production ([3]; Experiment 3, 1000-0.2 nM, 1 ng/mL LPS, 24 hr, n=2 donors): dose dependent inhibition
7 | C[C@]12C=CC(=O)C=C1[C@@H](F)C[C@H]1[C@@H]3C[C@H]4O[C@@H](c5ccc(CC67CC(N)(C6)C7)cc5)O[C@@]4(C(=O)CO)[C@@]3(C)C[C@H](O)[C@@]12F [INX-SM-24, (2S,6aS,6bR,7S,8aS,8bS,10R,11aR,12aS,12bS)-10-(4-((3-aminobicyclo[1.1.1]pentan-1-yl)methyl)phenyl)-2,6b-difluoro-7-hydroxy-8b-(2-hydroxyacetyl)-6a,8a-dimethyl-1,2,6a,6b,7,8,8a,8b,11a,12,12a,12b-dodecahydro-4H-naphtho[2′,1′:4,5]indeno[1,2-d][1,3]dioxol-4-one] |  |  | varying degrees of dose dependent steroid potency | impact of halogenation of the steroid ring on potency [3]: increased potency over the non-fluorinated INX-SM-3
8 | C[C@]12C=CC(=O)C=C1CC[C@H]1[C@@H]3C[C@H]4O[C@@H](c5ccc(CC67CC(N)(C6)C7)cc5)O[C@@]4(C(=O)CO)[C@@]3(C)C[C@H](O)[C@@]12F [INX-SM-13, (6aS,6bR,7S,8aS,8bS,10R,11aR,12aS,12bS)-10-(4-((3-aminobicyclo[1.1.1]pentan-1-yl)methyl)phenyl)-6b-fluoro-7-hydroxy-8b-(2-hydroxyacetyl)-6a,8a-dimethyl-1,2,6a,6b,7,8,8a,8b,11a,12,12a,12b-dodecahydro-4H-naphtho[2′,1′:4,5]indeno[1,2-d][1,3]dioxol-4-one] |  |  | varying degrees of dose dependent steroid potency | impact of halogenation of the steroid ring on potency [3]: did not lead to increased potency
9 | C[C@@]12CCC3=CC(=O)C=C[C@]3(C)[C@H]1[C@@H](O)C[C@@]1(C)[C@H]2C[C@H]2O[C@@H](c3ccc(CC4CC5(CC(N)C5)C4)cc3)O[C@]21C(=O)CO (stereo partly drawn) [INX-SM-32, (6aR,6bS,7S,8aS,8bS,11aR,12aS,12bS)-10-(4-((6-aminospiro[3.3]heptan-2-yl)methyl)phenyl)-7-hydroxy-8b-(2-hydroxyacetyl)-6a,8a-dimethyl-1,2,6a,6b,7,8,8a,8b,11a,12,12a,12b-dodecahydro-4H-naphtho[2′,1′:4,5]indeno[1,2-d][1,3]dioxol-4-one] |  |  | varying degrees of dose dependent steroid potency | IL-1β and IL-6 production ([3]; Experiment 4, 500-1 nM, 1 ng/mL LPS, 24 hr, n=2): dose dependent inhibition in IL-1β and IL-6 production
10 | C[C@]12C=CC(=O)C=C1[C@@H](F)C[C@H]1[C@@H]3C[C@H]4O[C@@H](c5ccc(CC67CC(NC(=O)[C@H](CCC(=O)O)NC(=O)CNC(=O)CBr)(C6)C7)cc5)O[C@@]4(C(=O)CO)[C@@]3(C)C[C@H](O)[C@@]12F [INX S, (S)-4-(2-(2-bromoacetamido)acetamido)-5-((3-(4-((2S,6aS,6bR,7S,8aS,8bS, 10R,11 aR,12aS,12bS)-2,6b-difluoro-7-hydroxy-8b-(2-hydroxyacetyl)-6a,8a-dimethyl-4-oxo-2,4,6a,6b,7,8,8a,8b,11a,12,12a,12b-dodecahydro-1H-naphtho[2′,1′:4,5]indeno[1,2-d][1,3]dioxol-10-yl)benzyl)bicyclo [1.1.1]pentan-1-yl)amino)-5-oxopentanoic acid] |  | remarkable long term potency; also recorded: increased potency relative to INX P |  | 
11 | C[C@]12C=CC(=O)C=C1CC[C@@H]1[C@@H]2[C@@H](O)C[C@@]2(C)[C@H]1C[C@H]1O[C@@H](c3ccc(CC4CC5(C4)CC(NC(=O)[C@H](CCC(=O)O)NC(=O)CNC(=O)CBr)C5)cc3)O[C@]12C(=O)CO (stereo partly drawn) [INX V, (S)-4-(2-(2-bromoacetamido)acetamido)-5-((6-(4-((6aR,6bS,7S,8aS,8bS,10R,11 aR,12aS,12bS)-7-hydroxy-8b-(2-hydroxyacetyl)-6a,8a-dimethyl-4-oxo-2,4,6a,6b,7,8,8a,8b,11a,12,12a,12b-dodecahydro-1H-naphtho[2′,1′:4,5]indeno[1,2-d][1,3]dioxol-10-yl)benzyl)spiro[3.3]heptan-2-yl)amino)-5-oxopentanoic acid] |  | remarkable long term potency |  | 
